# Data reported in patent publication US20230072421A1, “TARGETED RADIOPHARMACEUTICALS FOR THE DIAGNOSIS AND TREATMENT OF PROSTATE CANCER” (Bayer AS, priority 2019, published 2023).
# What was measured:
# [1] = system: VCap, C4-2, 22Rv1 and LnCap cells; assay: Cell proliferation assay, summary statements over several cell lines; format: cell-based; conditions: for antiproliferative activity on VCap, C4-2, 22Rv1 and LnCap cells (in words): 227Th-labelled compounds bearing the HOPO chelator Example A
# Description: (§1) Inhibition of cell proliferation of Thorium-227 labeled PMSA SMOL ligands was tested different prostate cancer cell lines, namely 22Rv1, VCaP, C4-2 (all from ATCC, Manassas, Va., USA) and LNCaP (DMSZ, Braunschweig). Cells were seeded using the following conditions in 384 well plates (Corning) in 30 μl of growth media at 4000 cells/well for VCaP cells and 1000 cells/well for 22Rv1, C4-2 and LNCaP cells.
# Cells were cultivated an incubator at 37° C. and 5% C02 over night. […] In sister plates cell viability at treatment start (d=0) was determined using CellTiter-Glo® assay (CTG, Promega, Madison, Wis., USA), by adding 30 μl per well CTG solution, incubation for 10 min and reading of Luminescence in a PheraStarFSX instrument (BMG Labtech). After a 5-day exposure in the presenced of test compounds, cell viability of treated or untreated control cells was determined again using CellTiter-Glo® assay (Promega, Madison, Wis., USA). […] The DRC software is a Biobook Spreadsheet that was developed by Bayer AG and Bayer Business Services on the IDBS E-Workbook Suite platform (IDBS: ID Business Solutions Ltd., Guildford, UK).
# [2] = biological target: T1, PSMA-expressing LNCaP cells (Homo sapiens, UniProt Q04609); assay: Binding competition assay against 3H-PSMA-617 on LNCaP cells
# T1 construct: PSMA-expressing LNCaP cells; endogenous in cells; host or cells: LNCaP
# Summary of the method: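 Compounds added to LNCaP cells in growth medium, 2 h at 37 °C, 5% CO2. After two ice-cold PBS washes, cells lysed in 0.3 M NaOH and bound radioactivity measured by liquid scintillation counting.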
# LNCaP cells = assay: Cell proliferation assay (CellTiter-Glo, 5-day exposure), LNCaP; format: cell-based, human; conditions: LNCaP, 1000 cells/well; Th-227 labelled at 375 kBq/nmol; 5-day exposure; mean of 1 to 6 experiments
# Description: as §1
# Cells were cultivated an incubator at 37° C. and 5% C02 over night. On the following days cells were treated in triplicates with serial dilutions of PSMA-SMOLs labeled with Th-227 at a specific activity of 375 kBq/nmol (RCP>70% as assessed by iTLC analysis; compounds where RCP was between 50-70% in individual experiments are marked with an * in the table) using a D300e Digital Dispenser (Tecan). In sister plates cell viability at treatment start (d=0) was determined using CellTiter-Glo® assay (CTG, Promega, Madison, Wis., USA), by adding 30 μl per well CTG solution, incubation for 10 min and reading of Luminescence in a PheraStarFSX instrument (BMG Labtech). After a 5-day exposure in the presenced of test compounds, cell viability of treated or untreated control cells was determined again using CellTiter-Glo® assay (Promega, Madison, Wis., USA). […] The DRC software is a Biobook Spreadsheet that was developed by Bayer AG and Bayer Business Services on the IDBS E-Workbook Suite platform (IDBS: ID Business Solutions Ltd., Guildford, UK).
# C4-2 cells = assay: Cell proliferation assay (CellTiter-Glo, 5-day exposure), C4-2; format: cell-based; conditions: C4-2, 1000 cells/well, Th-227 labelled at 375 kBq/nmol, mean of 1 to 6 experiments
# Summary of the method: (§2)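 Growth inhibition by radiolabelled (Th-227) PSMA small-molecule ligands is measured as ATP luminescence after 5 days of treatment, referenced to a day-0 reading from sister plates. VCaP are seeded at 4000 cells/well, the remaining lines at 1000 cells/well.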
# [3] = system: LNCaP human prostate cancer cells; assay: LNCaP xenograft efficacy study (T/C tumor area); format: in vivo, SCID mice
# Summary of the method: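 SCID mice with testosterone pellet bearing s.c. flank LNCaP xenografts (5×10^6 cells in Matrigel) were treated i.v. with a defined radioactive dose once tumors reached 35-50 mm^2 (n=10/group). Tumor area (caliper, longest diameter × perpendicular) measured 2-3× weekly; T/C ratio calculated from tumor areas when vehicle group closed.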
# VCaP cells = assay: Cell proliferation assay (CellTiter-Glo, 5-day exposure), VCaP; format: cell-based; conditions: 4000 cells/well, Th-227 labelled at 375 kBq/nmol, mean of 1 to 6 experiments
# Summary of the method: as §2
# 22Rv1 cells = assay: Cell proliferation assay (CellTiter-Glo, 5-day exposure), 22Rv1; format: cell-based; conditions: 22Rv1, 1000 cells/well, Th-227 labelled at 375 kBq/nmol, mean of 1 to 6 experiments
# Summary of the method: as §2
# [4] = biological target: T1, PSMA-expressing LNCaP cells; assay: Internalization assay (membrane bound and internalized Th-227); format: cell-based; conditions: 10 nM radiolabeled compound, Th-227 at 375 kBq/nmol, triplicates; for Internalized in LNCaP fmol/10^6 cells 30 min / Membrane bound in LNCaP fmol/10^6 cells 30 min: 30 min incubation; for Internalized in LNCaP fmol/10^6 cells 2 h / Membrane bound in LNCaP fmol/10^6 cells 2 h: 2 h incubation
# Description: For internalization assays 24 well plates (#3526, Corning) were coated with 200 μl Poly-L-Lysine (0.1 mg/ml, #3438-100-01, Fa. Cultrex) per well for 2 h at 37° C. […] Cells were incubated at 37° C. and 5% CO2 over night. On the following day 400 μl of the media were removed and a total of 200 μl growth medium added supplemented with PSMA-SMOLs labeled with Th-227 at 375 kBq/nmol in triplicates. Radiochemical purity of the labeling was analyzed by instant thin layer chromatography and found to be above 70% for all compounds used. The final concentration of radiolabeled SMOLs was in the test wells was 10 nM. Cells were incubated for 30 min or 2 h. After the incubation time supernatants were taken off and cells washed with PBS. Thereafter cells were washed twice with 0.2 ml 50 mM Glycine-HCl buffer (#55097, Sigma Aldrich) and once with PBS and the washing solutions combined in counting vials (#TK75-018, Fa. Corning) and subjected to gamma counting (1470 Wizard automatic gamma counter, Wallac). The resulting counts were attributed to membrane bound radioactivity. Cells were then lysed with 500 μl 0.3N NaOH (#181691.1211, Fa. PanReac AppliChem ITW Reagents) followed by another wash with 500 μl PBS. The NaOH lysate as well as the final wash were combined in vials and subjected to gamma counting as described above. Measured radioactivity was attributed to internalized fraction. Results were calculated as fmol of Th-227 per/10^cells in the membrane bound and internalized fractions from triplicate values.
# [5] = Example IV, day 36 after start of therapy, once 1 MBq/kg
# [6] = Example V, day 27 after start of therapy, once 750 kBq/kg
# T1 sequence (Q04609 whole entry): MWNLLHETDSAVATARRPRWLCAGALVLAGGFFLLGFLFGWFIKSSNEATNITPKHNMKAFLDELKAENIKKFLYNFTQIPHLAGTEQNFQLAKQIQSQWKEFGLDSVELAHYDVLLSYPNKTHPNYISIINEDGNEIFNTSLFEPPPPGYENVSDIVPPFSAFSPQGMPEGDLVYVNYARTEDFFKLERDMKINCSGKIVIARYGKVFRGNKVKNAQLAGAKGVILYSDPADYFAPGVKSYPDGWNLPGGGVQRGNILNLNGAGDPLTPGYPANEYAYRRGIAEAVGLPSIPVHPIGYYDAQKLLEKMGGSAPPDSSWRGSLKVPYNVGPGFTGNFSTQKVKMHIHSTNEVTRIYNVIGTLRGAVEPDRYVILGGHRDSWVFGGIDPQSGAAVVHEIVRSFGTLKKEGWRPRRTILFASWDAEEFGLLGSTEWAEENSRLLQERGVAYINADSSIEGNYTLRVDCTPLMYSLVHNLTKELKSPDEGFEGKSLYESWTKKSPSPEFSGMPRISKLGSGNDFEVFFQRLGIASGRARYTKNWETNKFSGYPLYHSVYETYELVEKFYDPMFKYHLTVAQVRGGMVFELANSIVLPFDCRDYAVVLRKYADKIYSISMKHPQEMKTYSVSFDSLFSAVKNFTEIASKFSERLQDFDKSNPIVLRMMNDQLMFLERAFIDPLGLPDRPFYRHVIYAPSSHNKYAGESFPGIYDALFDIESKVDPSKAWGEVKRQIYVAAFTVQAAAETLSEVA
Structure (SMILES),"antiproliferative activity on VCap, C4-2, 22Rv1 and LnCap cells (in words) [1]","% remaining 3H-PSMA-617 @ 10 nM (mean) ([2]; LNCaP cells, 10 nM 3H-PSMA-617, competing non-radiolabeled compound 10 nM, 2 h at 37° C., triplicates)","% remaining 3H-PSMA-617 @ 100 nM (mean) ([2]; LNCaP cells, 10 nM 3H-PSMA-617, competing non-radiolabeled compound 100 nM, 2 h at 37° C., triplicates)",competition against 3H-PSMA-617 on PSMA-expressing LNCaP cells (in words) ([2]; comparison between examples),Proliferation assay on cancer cell lines by TTCs Default Pivot #3 IC50 [kBq/mL] LnCap 1000cells 375kBq/nmol (mean) (LNCaP cells),Proliferation assay on cancer cell lines by TTCs Default Pivot #3 IC50 [kBq/mL] C4-2 1000cells 375kBq/nmol (mean) (C4-2 cells),"T/Carea [3, 5]","T/Carea [3, 6]",Proliferation assay on cancer cell lines by TTCs Default Pivot #3 IC50 [kBq/mL] VCap 4000cells 375kBq/nmol (mean) (VCaP cells),Proliferation assay on cancer cell lines by TTCs Default Pivot #3 IC50 [kBq/mL] 22Rv1 1000cells 375kBq/nmol (mean) (22Rv1 cells),Internalized in LNCaP fmol/10^6 cells 30 min [4],Membrane bound in LNCaP fmol/10^6 cells 30 min [4],Internalized in LNCaP fmol/10^6 cells 2 h [4],Membrane bound in LNCaP fmol/10^6 cells 2 h [4],"T/Carea ([3]; Example I, day 27, 1 x 750 kBq/kg)","antiproliferative activity on VCap and C4-2 cells (in words) ([1]; 227Th-labelled compounds, in comparison to 227Th-labelled examples 1-C monomer, dimer, trimer and tetramer)"
"Cc1cc(C(=O)NCCN(CCCN(CCNC(=O)c2cc(C)n(CC(=O)O)c(=O)c2O)CCNC(=O)c2cc(C)n(CC(=O)NC[C@H]3CC[C@H](C(=O)N[C@@H](Cc4ccc5ccccc5c4)C(=O)NCCCC[C@H](NC(=O)N[C@@H](CCC(=O)O)C(=O)O)C(=O)O)CC3)c(=O)c2O)CCNC(=O)c2cc(C)n(CC(=O)NC[C@H]3CC[C@H](C(=O)N[C@@H](Cc4ccc5ccccc5c4)C(=O)NCCCC[C@H](NC(=O)N[C@@H](CCC(=O)O)C(=O)O)C(=O)O)CC3)c(=O)c2O)c(O)c(=O)n1CC(=O)O [1-C dimer, (3S,10S,14S,3'S,10'S,14'S)-1,1′-(propane-1,3-diylbis{[(2-{[1-(carboxymethyl)-3-hydroxy-6-methyl-2-oxo-1,2-dihydropyridine-4-carbonyl]amino}ethyl)azanediyl]ethane-2,1-diylcarbamoyl(3-hydroxy-6-methyl-2-oxopyridine-4,1(2H)-diyl)(1-oxoethane-2,1-diyl)azanediylmethylene(1r,4S)cyclohexane-4,1-diyl})bis{3-[(naphthalen-2-yl)methyl]-1,4,12-trioxo-2,5,11,13-tetraazahexadecane-10,14,16-tricarboxylic acid}]",high antiproliferative activity,39%,5%,improved competition,,,,,,,,,,,,
Cc1cc2c(c(=O)n1CC(=O)O)[O][227Th]13[O]c4c(cc(C)n(CC(=O)O)c4=O)C(=O)NCCN(CCCN(CCNC2=O)CCNC(=O)c2cc(C)n(CC(=O)NCc4ccc(C(=O)N[C@@H](Cc5ccc6ccccc6n5)C(=O)NCCCC[C@H](NC(=O)N[C@@H](CCC(=O)O)C(=O)O)C(=O)O)nc4)c(=O)c2[O]1)CCNC(=O)c1cc(C)n(CC(=O)NCc2ccc(C(=O)N[C@@H](Cc4ccc5ccccc5n4)C(=O)NCCCC[C@H](NC(=O)N[C@@H](CCC(=O)O)C(=O)O)C(=O)O)nc2)c(=O)c1[O]3 [34-C dimer-227Th],,,,,0.02 kBq/mL,0.46 kBq/mL,0.46,0.38,1.25 kBq/mL,1.36 kBq/mL,100 fmol/10^6 cells,79 fmol/10^6 cells,299 fmol/10^6 cells,185 fmol/10^6 cells,,
Cc1cc2c(c(=O)n1CC(=O)O)[O][227Th]13[O]c4c(cc(C)n(CC(=O)O)c4=O)C(=O)NCCN(CCCN(CCNC(=O)c4cc(C)n(CC(=O)O)c(=O)c4[O]1)CCNC(=O)c1cc(C)n(CC(=O)NCc4ccc(C(=O)N[C@@H](Cc5ccc6ccccc6n5)C(=O)NCCCC[C@H](NC(=O)N[C@@H](CCC(=O)O)C(=O)O)C(=O)O)nc4)c(=O)c1[O]3)CCNC2=O [34-C monomer-227Th],,,,,0.02 kBq/mL,0.15 kBq/mL,0.51,0.37,0.99 kBq/mL,1.28 kBq/mL,75 fmol/10^6 cells,147 fmol/10^6 cells,325 fmol/10^6 cells,359 fmol/10^6 cells,0.37,
Cc1cc2c(c(=O)n1CC(=O)O)[O][227Th]13[O]c4c(cc(C)n(CC(=O)O)c4=O)C(=O)NCCN(CCCN(CCNC(=O)c4cc(C)n(CC(=O)O)c(=O)c4[O]1)CCNC(=O)c1cc(C)n(CC(=O)NCc4ccc(C(=O)N[C@@H](Cc5ccc6ccccc6n5)C(=O)NCCCC[C@H](NC(=O)N[C@@H](CCC(=O)O)C(=O)O)C(=O)O)nc4)c(=O)c1[O]3)CCNC2=O [34-C monomer],high antiproliferative activity,,,,,,,,,,,,,,,improved antiproliferative activity
Cc1cc(C(=O)NCCN(CCCN(CCNC(=O)c2cc(C)n(CC(=O)NCc3ccc(C(=O)N[C@@H](Cc4ccc5ccccc5n4)C(=O)NCCCC[C@H](NC(=O)N[C@@H](CCC(=O)O)C(=O)O)C(=O)O)nc3)c(=O)c2[O-])CCNC(=O)c2cc(C)n(CC(=O)NCc3ccc(C(=O)N[C@@H](Cc4ccc5ccccc5n4)C(=O)NCCCC[C@H](NC(=O)N[C@@H](CCC(=O)O)C(=O)O)C(=O)O)nc3)c(=O)c2[O-])CCNC(=O)c2cc(C)n(CC(=O)NCc3ccc(C(=O)N[C@@H](Cc4ccc5ccccc5n4)C(=O)NCCCC[C@H](NC(=O)N[C@@H](CCC(=O)O)C(=O)O)C(=O)O)nc3)c(=O)c2[O-])c([O-])c(=O)n1CC(=O)O.[227Th+4] [34-C trimer 227Th],,,,,0.03 kBq/mL,0.28 kBq/mL,0.41,0.56,1.1 kBq/mL,1.25 kBq/mL,68 fmol/10^6 cells,49 fmol/10^6 cells,162 fmol/10^6 cells,93 fmol/10^6 cells,,
